Results taken from US6825170B2, “6-O-acyl ketolide antibacterials” (Ortho-McNeil Pharmaceutical, Inc., priority 2001, dated 2004).
In brackets after ≈: the same amount, converted by molar mass.

What was measured:
Assay in all cases: MIC, microdilution broth method (NCCLS)
Format in all cases: cell-based
Conditions in all cases: 35° C., 16-20 hours
E. faecalis ATCC29212 = test system: E. faecalis ATCC29212
Method: (§1) Minimal inhibitory concentration (MIC) has been an indicator of in vitro antibacterial activity widely used in the art. The in vitro antimicrobial activity of the compounds was determined by the microdilution broth method following the test method from the National Committee for Clinical Laboratory Standards (NCCLS). This method is described in the NCCLS Document M7-A4, Vol.17, No.2, “Methods for Dilution Antimicrobial Susceptibility Test for Bacteria that Grow Aerobically—Fourth Edition”, which is incorporated herein by reference.
(§2) In this method two-fold serial dilutions of drug in cation adjusted Mueller-Hinton broth are added to wells in microdilution trays. The test organisms are prepared by adjusting the turbidity of actively growing broth cultures so that the final concentration of test organism after it is added to the wells is approximately 5×10^4 CFU/well.
(§3) Following inoculation of the microdilution trays, the trays are incubated at 35° C. for 16-20 hours and then read. […] The amount of growth in the wells containing the test compound is compared with the amount of growth in the growth-control wells (no test compound) used in each tray. As set forth in Table 1, compounds of the present invention were tested against a variety of Gram positive and Gram negative pathogenic bacteria resulting in a range of activities depending on the organism tested.

H. influenzae ATCC49247 = test system: H. influenzae ATCC49247
Method: as §1, §2, §3

S. aureus ATCC29213 = test system: S. aureus ATCC29213
Method: as §1, §2, §3

S. pneumoniae ATCC49619 = test system: S. pneumoniae ATCC49619
Method: as §1, §2, §3

Structure (SMILES) | MIC (C: E. faecalis ATCC29212) (E. faecalis ATCC29212) [µg/mL] | MIC (E: H. influenzae ATCC49247) (H. influenzae ATCC49247) [µg/mL] | MIC (B: S. aureus ATCC29213) (S. aureus ATCC29213) [µg/mL] | MIC (D: S. pneumoniae ATCC49619) (S. pneumoniae ATCC49619)
CC[C@H]1OC(=O)[C@H](C)C(=O)[C@H](C)[C@@H](O[C@@H]2O[C@H](C)C[C@H](N(C)C)[C@H]2O)[C@](C)(OC(=O)SC/C=C/c2ccccc2)C[C@@H](C)C(=O)[C@H](C)[C@H]2NC(=O)O[C@@]21C [Compound 830] | 0.5 (≈ 0.645 µM) | 4 (≈ 5.16 µM) | 1 (≈ 1.29 µM) | 0.12 µg/mL (≈ 0.155 µM)
CCC1OC(=O)C(C)C(=O)C(C)C(OC2OC(C)CC(N(C)C)C2O)C(C)(OC(=O)OCC=Cc2ccc(-c3ncc(Br)cn3)cc2)CC(C)C(=O)C(C)C2NC(=O)OC12C (stereo not drawn) [Compound 56] | 0.25 (≈ 0.273 µM) | 2 (≈ 2.18 µM) | 0.5 (≈ 0.546 µM) | 0.06 µg/mL (≈ 0.0655 µM)
CCC1OC(=O)C(C)C(=O)C(C)C(OC2OC(C)CC(N(C)C)C2O)C(C)(OC(=O)OCC#Cc2cc(-c3ccccn3)no2)CC(C)C(=O)C(C)C2NC(=O)OC12C (stereo not drawn) [Compound 122] | 0.06 (≈ 0.0727 µM) | 1 (≈ 1.21 µM) | 0.12 (≈ 0.145 µM) | ≦0.015 μg/mL
CCC1OC(=O)C(C)C(=O)C(C)C(OC2OC(C)CC(N(C)C)C2O)C(C)(OC(=O)OCC=Cc2ccc(-c3ccccn3)s2)CC(C)C(=O)C(C)C2NC(=O)OC12C (stereo not drawn) [Compound 63] | 0.12 (≈ 0.143 µM) | 1 (≈ 1.19 µM) | 0.25 (≈ 0.297 µM) | 0.06 µg/mL (≈ 0.0713 µM)
CCC1OC(=O)C(C)C(=O)C(C)C(OC2OC(C)CC(N(C)C)C2O)C(C)(OC(=O)OCCC#Cc2ccc(-c3ncccn3)cc2)CC(C)C(=O)C(C)C2NC(=O)OC12C (stereo not drawn) [Compound 137] | 0.12 (≈ 0.141 µM) | 4 (≈ 4.71 µM) | 0.25 (≈ 0.294 µM) | 0.03 µg/mL (≈ 0.0353 µM)
CCC1OC(=O)C(C)C(=O)C(C)C(OC2OC(C)CC(N(C)C)C2O)C(C)(OC(=O)OCC=Cc2cccc(-c3ncccn3)c2)CC(C)C(=O)C(C)C2NC(=O)OC12C (stereo not drawn) [Compound 15] | 0.06 (≈ 0.0717 µM) | 0.5 (≈ 0.597 µM) | 0.12 (≈ 0.143 µM) | 0.03 µg/mL (≈ 0.0358 µM)
CCC1OC(=O)C(C)C(=O)C(C)C(OC2OC(C)CC(N(C)C)C2O)C(C)(OC(=O)OCC=Cc2ccc(-c3cnco3)cc2)CC(C)C(=O)C(C)C2NC(=O)OC12C (stereo not drawn) [Compound 48] | 0.12 (≈ 0.145 µM) | 1 (≈ 1.21 µM) | 0.12 (≈ 0.145 µM) | 0.03 µg/mL (≈ 0.0363 µM)
CC[C@H]1OC(=O)[C@H](C)C(=O)[C@H](C)[C@@H](O[C@@H]2O[C@H](C)C[C@H](N(C)C)[C@H]2O)[C@](C)(OC(=O)N(C)NCc2ccc(-c3cnccn3)cc2)C[C@@H](C)C(=O)[C@H](C)[C@H]2NC(=O)O[C@@]21C [Compound 817] | 0.25 (≈ 0.298 µM) | 8 (≈ 9.54 µM) | 2 (≈ 2.38 µM) | 0.06 µg/mL (≈ 0.0715 µM)
CCC1OC(=O)C(C)C(=O)C(C)C(OC2OC(C)CC(N(C)C)C2O)C(C)(OC(=O)OCC=Cc2nc3ccccc3n2C)CC(C)C(=O)C(C)C2NC(=O)OC12C (stereo not drawn) [Compound 55] | 0.12 (≈ 0.148 µM) | 1 (≈ 1.23 µM) | 0.25 (≈ 0.308 µM) | 0.03 µg/mL (≈ 0.0369 µM)
CC[C@H]1OC(=O)[C@H](C)C(=O)[C@H](C)[C@@H](O[C@@H]2O[C@H](C)C[C@H](N(C)C)[C@H]2O)[C@](C)(OC(=O)N(C)N(C)CCc2ccc(-c3cnccn3)cc2)C[C@@H](C)C(=O)[C@H](C)[C@H]2NC(=O)O[C@@]21C [Compound 821] | 0.5 (≈ 0.577 µM) | 16 (≈ 18.5 µM) | 2 (≈ 2.31 µM) | 0.12 µg/mL (≈ 0.138 µM)
CC[C@H]1OC(=O)[C@H](C)C(=O)[C@H](C)[C@@H](O[C@@H]2O[C@H](C)C[C@H](N(C)C)[C@H]2O)[C@](C)(OC(=O)NN=CCc2ccc(-c3ncccn3)cc2)C[C@@H](C)C(=O)[C@H](C)[C@H]2NC(=O)O[C@@]21C [Compound 826] | 2 (≈ 2.39 µM) | 8 (≈ 9.56 µM) | 8 (≈ 9.56 µM) | 0.25 µg/mL (≈ 0.299 µM)
CCC1OC(=O)C(C)C(=O)C(C)C(OC2OC(C)CC(N(C)C)C2O)C(C)(OC(=O)OCC=Cc2ccc(-n3cncn3)cc2)CC(C)C(=O)C(C)C2NC(=O)OC12C (stereo not drawn) [Compound 22] | 0.06 (≈ 0.0726 µM) | 0.5 (≈ 0.605 µM) | 0.25 (≈ 0.303 µM) | ≦0.015 μg/mL
CCC1OC(=O)C(C)C(=O)C(C)C(OC2OC(C)CC(N(C)C)C2O)C(C)(OC(=O)OCC=Cc2ccc(-c3cccs3)s2)CC(C)C(=O)C(C)C2NC(=O)OC12C (stereo not drawn) [Compound 73] | 1 (≈ 1.18 µM) | 16 (≈ 18.9 µM) | 2 (≈ 2.36 µM) | 0.25 µg/mL (≈ 0.295 µM)
CC[C@H]1OC(=O)[C@H](C)C(=O)[C@H](C)[C@@H](O[C@@H]2O[C@H](C)C[C@H](N(C)C)[C@H]2O)[C@](C)(OC(=O)N(C)N(C)Cc2ccc(-c3cnccn3)cc2)C[C@@H](C)C(=O)[C@H](C)[C@H]2NC(=O)O[C@@]21C [Compound 819] | 1 (≈ 1.17 µM) | >16 | 16 (≈ 18.8 µM) | 0.25 µg/mL (≈ 0.293 µM)
CCC1OC(=O)C(C)C(=O)C(C)C(OC2OC(C)CC(N(C)C)C2O)C(C)(OC(=O)OCC=Cc2ccc(-c3ccc(C)nn3)cc2)CC(C)C(=O)C(C)C2NC(=O)OC12C (stereo not drawn) [Compound 61] | 0.12 (≈ 0.141 µM) | 1 (≈ 1.18 µM) | 0.12 (≈ 0.141 µM) | 0.03 µg/mL (≈ 0.0353 µM)
CC[C@H]1OC(=O)[C@H](C)C(=O)[C@H](C)[C@@H](O[C@@H]2O[C@H](C)C[C@H](N(C)C)[C@H]2O)[C@](C)(OC(=O)NN(C(C)=O)S(=O)(=O)c2ccc(C)cc2)C[C@@H](C)C(=O)[C@H](C)[C@H]2NC(=O)O[C@@]21C [Compound 810] | 0.5 (≈ 0.586 µM) | 4 (≈ 4.69 µM) | 2 (≈ 2.34 µM) | 0.06 µg/mL (≈ 0.0703 µM)
CC[C@H]1OC(=O)[C@H](C)C(=O)[C@H](C)[C@@H](O[C@@H]2O[C@H](C)C[C@H](N(C)C)[C@H]2O)[C@](C)(OC(=O)NNC(C)=O)C[C@@H](C)C(=O)[C@H](C)[C@H]2NC(=O)O[C@@]21C [Compound 812] | 4 (≈ 5.72 µM) | >16 | >16 | 2 µg/mL (≈ 2.86 µM)
CC[C@H]1OC(=O)[C@H](C)C(=O)[C@H](C)[C@@H](O[C@@H]2O[C@H](C)C[C@H](N(C)C)[C@H]2O)[C@](C)(OC(=O)Cc2ccccc2)C[C@@H](C)C(=O)[C@H](C)[C@H]2NC(=O)O[C@@]21C [Compound 843] | 2 (≈ 2.79 µM) | 16 (≈ 22.3 µM) | 8 (≈ 11.2 µM) | 0.5 µg/mL (≈ 0.697 µM)
CCC1OC(=O)C(C)C(=O)C(C)C(OC2OC(C)CC(N(C)C)C2O)C(C)(OC(=O)OCC=Cc2ccc(-c3ncco3)cc2)CC(C)C(=O)C(C)C2NC(=O)OC12C (stereo not drawn) [Compound 47] | 0.06 (≈ 0.0726 µM) | 0.5 (≈ 0.605 µM) | 0.12 (≈ 0.145 µM) | ≦0.015 μg/mL
CCC1OC(=O)C(C)C(=O)C(C)C(OC2OC(C)CC(N(C)C)C2O)C(C)(OC(=O)OCC=Cc2cnc3ccccc3c2)CC(C)C(=O)C(C)C2NC(=O)OC12C (stereo not drawn) [Compound 37] | 0.06 (≈ 0.0741 µM) | 0.5 (≈ 0.617 µM) | 0.12 (≈ 0.148 µM) | ≦0.015 μg/mL
CCC1OC(=O)C(C)C(=O)C(C)C(OC2OC(C)CC(N(C)C)C2O)C(C)(OC(=O)OCC=Cc2cn(-c3ncccn3)cn2)CC(C)C(=O)C(C)C2NC(=O)OC12C (stereo not drawn) [Compound 34] | 0.12 (≈ 0.145 µM) | 1 (≈ 1.21 µM) | 0.25 (≈ 0.302 µM) | 0.03 µg/mL (≈ 0.0363 µM)
CC[C@H]1OC(=O)[C@H](C)C(=O)[C@H](C)[C@@H](O[C@@H]2O[C@H](C)C[C@H](N(C)C)[C@H]2O)[C@](C)(OC(=O)N(C)NCCc2ccc(-c3cnccn3)cc2)C[C@@H](C)C(=O)[C@H](C)[C@H]2NC(=O)O[C@@]21C [Compound 820] | 0.25 (≈ 0.293 µM) | 8 (≈ 9.38 µM) | 1 (≈ 1.17 µM) | 0.06 µg/mL (≈ 0.0703 µM)
CCC1OC(=O)C(C)C(=O)C(C)C(OC2OC(C)CC(N(C)C)C2O)C(C)(OC(=O)OCC=Cc2ccc(-c3ncccn3)s2)CC(C)C(=O)C(C)C2NC(=O)OC12C (stereo not drawn) [Compound 64] | 0.06 (≈ 0.0712 µM) | 1 (≈ 1.19 µM) | 0.12 (≈ 0.142 µM) | 0.03 µg/mL (≈ 0.0356 µM)
CCC1OC(=O)C(C)C(=O)C(C)C(OC2OC(C)CC(N(C)C)C2O)C(C)(OC(=O)OCC=Cc2ccc(-c3cccs3)cc2)CC(C)C(=O)C(C)C2NC(=O)OC12C (stereo not drawn) [Compound 50] | 0.5 (≈ 0.595 µM) | 2 (≈ 2.38 µM) | 1 (≈ 1.19 µM) | 0.06 µg/mL (≈ 0.0713 µM)
